# What was measured:
# [1] = Volume of distribution at steady state in Sprague-Dawley rat at 1 mg/kg, iv; assay type: ADME, organism-based; settings: in vivo, read-out: Vdss
# [2] = target: T1, Nuclear receptor subfamily 1 group I member 2 (Homo sapiens, UniProt O75469); test: Inhibition of Gal4-tagged PXR LBD (unknown origin) by cell based luciferase reporter gene assay
# T1 sequence (O75469 whole entry): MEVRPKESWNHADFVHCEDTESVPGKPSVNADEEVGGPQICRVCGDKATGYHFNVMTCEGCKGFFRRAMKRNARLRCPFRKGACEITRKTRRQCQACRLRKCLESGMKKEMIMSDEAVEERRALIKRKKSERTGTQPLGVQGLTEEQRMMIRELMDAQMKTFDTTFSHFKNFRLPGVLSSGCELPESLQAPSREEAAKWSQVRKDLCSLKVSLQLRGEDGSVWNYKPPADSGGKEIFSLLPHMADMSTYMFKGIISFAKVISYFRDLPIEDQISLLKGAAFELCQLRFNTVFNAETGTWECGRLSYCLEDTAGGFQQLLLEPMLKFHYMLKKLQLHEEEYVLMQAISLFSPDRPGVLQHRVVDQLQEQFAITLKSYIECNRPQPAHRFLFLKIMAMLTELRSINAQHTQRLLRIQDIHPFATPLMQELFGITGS
# [3] = target: T2, Retinoic acid receptor RXR-alpha (Homo sapiens, UniProt P19793); test: Inhibition of Gal4-tagged RXRalpha LBD (unknown origin) by cell based luciferase reporter gene assay
# T2 sequence (P19793 whole entry): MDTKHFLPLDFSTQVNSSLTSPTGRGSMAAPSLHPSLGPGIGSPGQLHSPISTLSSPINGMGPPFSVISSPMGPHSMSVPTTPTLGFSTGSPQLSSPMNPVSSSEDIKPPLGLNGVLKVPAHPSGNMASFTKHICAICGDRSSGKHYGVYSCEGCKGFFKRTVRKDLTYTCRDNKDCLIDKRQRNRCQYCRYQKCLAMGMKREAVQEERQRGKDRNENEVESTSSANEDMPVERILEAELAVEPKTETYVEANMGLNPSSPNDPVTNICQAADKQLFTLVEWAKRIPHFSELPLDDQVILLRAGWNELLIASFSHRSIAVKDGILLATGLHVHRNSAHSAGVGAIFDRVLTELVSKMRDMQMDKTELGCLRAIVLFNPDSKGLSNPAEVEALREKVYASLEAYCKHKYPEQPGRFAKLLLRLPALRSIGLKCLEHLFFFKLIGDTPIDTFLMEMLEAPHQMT
# Progesterone receptor = target: T3, Progesterone receptor (Homo sapiens, UniProt P06401); test: Inhibition of Gal4-tagged PR LBD (unknown origin) by cell based luciferase reporter gene assay
# T3 sequence (P06401 whole entry): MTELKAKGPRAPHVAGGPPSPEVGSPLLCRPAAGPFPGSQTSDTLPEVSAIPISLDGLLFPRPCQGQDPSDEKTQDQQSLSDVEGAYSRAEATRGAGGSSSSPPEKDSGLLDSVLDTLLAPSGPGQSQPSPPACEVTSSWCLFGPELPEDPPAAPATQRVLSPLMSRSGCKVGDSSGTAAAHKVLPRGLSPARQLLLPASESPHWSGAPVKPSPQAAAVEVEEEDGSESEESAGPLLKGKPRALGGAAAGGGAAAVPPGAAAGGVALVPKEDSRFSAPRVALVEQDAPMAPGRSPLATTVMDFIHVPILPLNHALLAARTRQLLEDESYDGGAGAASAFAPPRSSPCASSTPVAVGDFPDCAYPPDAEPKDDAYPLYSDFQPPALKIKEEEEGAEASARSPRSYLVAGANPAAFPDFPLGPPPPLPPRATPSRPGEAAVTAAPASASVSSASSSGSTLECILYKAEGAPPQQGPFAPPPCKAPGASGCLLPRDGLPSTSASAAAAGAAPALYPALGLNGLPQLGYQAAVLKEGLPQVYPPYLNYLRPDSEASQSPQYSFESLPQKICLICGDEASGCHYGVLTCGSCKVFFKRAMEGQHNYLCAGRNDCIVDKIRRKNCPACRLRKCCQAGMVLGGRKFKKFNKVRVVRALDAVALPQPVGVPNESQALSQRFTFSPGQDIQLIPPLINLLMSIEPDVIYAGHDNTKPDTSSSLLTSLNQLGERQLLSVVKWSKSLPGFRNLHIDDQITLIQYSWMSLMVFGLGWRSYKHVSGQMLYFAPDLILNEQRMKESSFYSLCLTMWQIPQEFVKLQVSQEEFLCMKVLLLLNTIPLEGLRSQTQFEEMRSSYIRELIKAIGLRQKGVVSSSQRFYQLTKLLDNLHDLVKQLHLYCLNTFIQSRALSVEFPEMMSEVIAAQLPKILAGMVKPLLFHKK
# Cytochrome P450 3A4 = Cytochrome P450 3A4 (Homo sapiens, UniProt P08684); test: Time dependent inhibition of CYP3A4 (unknown origin); assay type: ADME; set-up: concentration or dose not given beside the values
# Cytochrome P450 3A4, sequence (P08684 whole entry, the tested form may be a part): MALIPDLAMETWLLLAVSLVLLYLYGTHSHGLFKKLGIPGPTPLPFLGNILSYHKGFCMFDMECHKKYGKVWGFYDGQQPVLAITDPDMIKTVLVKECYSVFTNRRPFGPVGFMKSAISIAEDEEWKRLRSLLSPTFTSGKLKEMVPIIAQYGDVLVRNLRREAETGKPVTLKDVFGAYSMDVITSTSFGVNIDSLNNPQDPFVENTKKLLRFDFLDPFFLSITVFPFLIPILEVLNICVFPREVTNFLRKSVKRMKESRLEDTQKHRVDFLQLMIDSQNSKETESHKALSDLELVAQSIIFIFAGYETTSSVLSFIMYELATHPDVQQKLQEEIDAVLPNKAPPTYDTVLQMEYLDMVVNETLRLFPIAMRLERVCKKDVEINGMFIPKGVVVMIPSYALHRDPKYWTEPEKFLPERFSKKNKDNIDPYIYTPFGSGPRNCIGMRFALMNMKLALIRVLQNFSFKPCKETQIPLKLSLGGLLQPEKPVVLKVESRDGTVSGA
# Vitamin D3 receptor = target: T4, Vitamin D3 receptor (Homo sapiens, UniProt P11473); test: Inhibition of Gal4-tagged VDR LBD (unknown origin) by cell based luciferase reporter gene assay
# T4 sequence (P11473 whole entry): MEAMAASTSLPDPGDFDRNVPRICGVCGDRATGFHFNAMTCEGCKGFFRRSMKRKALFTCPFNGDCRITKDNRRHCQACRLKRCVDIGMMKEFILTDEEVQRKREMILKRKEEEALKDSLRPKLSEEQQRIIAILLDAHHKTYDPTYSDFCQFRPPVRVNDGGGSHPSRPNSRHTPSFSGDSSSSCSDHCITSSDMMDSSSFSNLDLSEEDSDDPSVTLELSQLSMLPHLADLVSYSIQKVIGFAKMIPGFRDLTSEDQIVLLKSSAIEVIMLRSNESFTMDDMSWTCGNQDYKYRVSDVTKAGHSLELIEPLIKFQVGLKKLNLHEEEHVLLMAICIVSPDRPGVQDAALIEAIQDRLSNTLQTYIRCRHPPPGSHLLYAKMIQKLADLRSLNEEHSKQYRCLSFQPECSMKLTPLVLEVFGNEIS
# [4] = target: T5, Nuclear receptor ROR-gamma (Homo sapiens, UniProt P51449); test: Inhibition of human GAL4-DBD fused RORgammat LBD expressed in human Jurkat cells assessed as inhibition of receptor transactivation after 24 hrs by luciferase reporter gene assay; assay type: cell-based
# T5 sequence (P51449 whole entry): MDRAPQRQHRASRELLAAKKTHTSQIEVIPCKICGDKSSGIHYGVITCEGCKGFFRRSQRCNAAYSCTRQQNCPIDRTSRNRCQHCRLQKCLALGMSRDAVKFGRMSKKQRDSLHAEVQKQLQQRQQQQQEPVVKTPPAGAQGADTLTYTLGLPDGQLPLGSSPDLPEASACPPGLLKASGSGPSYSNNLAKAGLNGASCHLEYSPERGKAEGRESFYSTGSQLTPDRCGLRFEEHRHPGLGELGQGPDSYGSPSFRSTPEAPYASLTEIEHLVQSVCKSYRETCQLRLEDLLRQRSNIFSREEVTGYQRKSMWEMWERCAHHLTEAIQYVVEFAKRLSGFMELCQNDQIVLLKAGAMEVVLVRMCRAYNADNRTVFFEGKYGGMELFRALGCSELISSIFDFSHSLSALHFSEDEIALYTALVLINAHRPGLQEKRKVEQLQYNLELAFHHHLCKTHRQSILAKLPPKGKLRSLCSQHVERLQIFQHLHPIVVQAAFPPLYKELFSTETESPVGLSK
compound,measurement,setting,value
"Cc1c(C2(C(F)(F)F)CC2)nc(C2CC2)n1-c1c(Cl)ccc(N2CC3(CC(C(=O)O)C3)C2)c1Cl (single isomer, unassigned; atropisomer)",Vd,[1],1 L/kg
same,IC50,[2],> 10 µM
same,IC50,[3],> 10 µM
same,IC50,Progesterone receptor,> 10 µM
same,K,Cytochrome P450 3A4,0.005 min⁻¹
same,IC50,Vitamin D3 receptor,> 10 µM
same,IC50,[4],0.151 µM

# — ChEMBL document CHEMBL4321852, “Structure-Based and Property-Driven Optimization of N-Aryl Imidazoles toward Potent and Selective Oral RORγt Inhibitors” (J Med Chem, 2019)
